Measured values as given in PubChem BioAssay (NCI).
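Test compounds were applied to cells in 96-well plates for 48 hours at 5 doses. TGI denotes the concentration required for complete inhibition of growth.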

How the values were obtained:
Assay in all cases: NCI tumour cell line growth inhibition, 48 h
HL-60(TB) leukemia = system: HL-60(TB) leukemia
CCRF-CEM leukemia = system: CCRF-CEM leukemia
M14 melanoma = system: M14 melanoma
KM12 colon = system: KM12 colon
NCI-H23 lung = system: NCI-H23 lung
A498 renal = system: A498 renal
NCI-H522 lung = system: NCI-H522 lung
HCC-2998 colon = system: HCC-2998 colon
NCI-H226 lung = system: NCI-H226 lung
SK-MEL-5 melanoma = system: SK-MEL-5 melanoma
HCT-15 colon = system: HCT-15 colon
HOP-92 NSCLC = system: HOP-92 NSCLC
MOLT-4 leukemia = system: MOLT-4 leukemia
SN12C renal = system: SN12C renal
UACC-62 melanoma = system: UACC-62 melanoma
U251 CNS = system: U251 CNS
ACHN renal = system: ACHN renal
786-0 renal = system: 786-0 renal
A549 NSCLC = system: A549 NSCLC
HOP-62 NSCLC = system: HOP-62 NSCLC
SF-268 CNS = system: SF-268 CNS
OVCAR-5 ovarian = system: OVCAR-5 ovarian
HOP-18 NSCLC = system: HOP-18 NSCLC
SW-620 colon = system: SW-620 colon
LXFL 529 NSCLC = system: LXFL 529 NSCLC
KM20L2 colon = system: KM20L2 colon
UACC-257 melanoma = system: UACC-257 melanoma
M19-MEL melanoma = system: M19-MEL melanoma
RPMI-8226 leukemia = system: RPMI-8226 leukemia
NCI-H460 lung = system: NCI-H460 lung
K-562 leukemia = system: K-562 leukemia
OVCAR-3 ovarian = system: OVCAR-3 ovarian
OVCAR-4 ovarian = system: OVCAR-4 ovarian
DLD-1 colon = system: DLD-1 colon
DMS 114 small cell lung = system: DMS 114 small cell lung
IGROV1 ovarian = system: IGROV1 ovarian
MALME-3M melanoma = system: MALME-3M melanoma
EKVX NSCLC = system: EKVX NSCLC
CAKI-1 renal = system: CAKI-1 renal
SK-MEL-2 melanoma = system: SK-MEL-2 melanoma
COLO 205 colon = system: COLO 205 colon
TK-10 renal = system: TK-10 renal
SNB-78 CNS = system: SNB-78 CNS
SF-295 CNS = system: SF-295 CNS
SNB-75 CNS = system: SNB-75 CNS
OVCAR-8 ovarian = system: OVCAR-8 ovarian
SK-OV-3 ovarian = system: SK-OV-3 ovarian
SK-MEL-28 melanoma = system: SK-MEL-28 melanoma
DMS 273 small cell lung = system: DMS 273 small cell lung
RXF-631 renal = system: RXF-631 renal
SF-539 CNS = system: SF-539 CNS
UO-31 renal = system: UO-31 renal
SNB-19 CNS = system: SNB-19 CNS

Measured: TGI

CCn1c(=O)nc2n(-c3ccc(SC)cc3)c3ccccc3nc-2c1=O
> 100 µM: all assays above
